Test results as given in patent US20260184700A1, “PDK1 REGULATORY COMPOUND AND COMPOSITION CONTAINING THE SAME” (PROVIBIO CO., LTD., priority 2024, published 2026).

Legend:
[1] = test system: Human B Lymphocyte cell line, SU-DHL-8; assay: Relative cell viability, CCK-8, SU-DHL-8; assay type: cell-based; details: 48 hours
Method: Human-derived B lymphoma cell line SU-DHL-8 (Cat. #CRL-2961) purchased from ATCC was cultured in RPMI-1640 medium containing 10% FBS, 100 U/mL penicillin, and 100 μg/mL streptomycin.
The cell culture medium was then harvested, centrifuged at 1,300 rpm for 5 minutes, and the supernatant was removed. The cells were resuspended in the same medium and dispensed into a 96-well plate (Costar 96-well cell culture plate, Corning) at 90 μL per well, resulting in the conditions specified in Table 5.
Then, 10 μL of CCK-8 was added to each well, and the plates were incubated again at 37° C. in a 5% CO2 incubator for 4 hours.
In other words, when the survival rate of untreated cells (DMSO) is set at 100%, the relative cell survival rate in each group treated with the drug at different concentrations is indicated.

[2] = test system: MRL/lpr mice; assay: Lupus animal model (MRL/lpr mice); assay type: in vivo, mouse; details: 41-week-old female MRL/lpr mice; GO15F (30 mg/kg), GO48 (1 mg/kg), GO88 (0.5 mg/kg) intraperitoneally once daily
Description: The MRL/MpJ-Faslpr/J (Hereinafter Referred to as “MRL/lpr”) used in this experiment is one of the representative animal models for systemic lupus erythematosus (SLE), known to produce various autoantibodies, including antinuclear antibodies, due to the lpr (lymphoproliferation) gene.
In this invention, the period up to 9 weeks of age was considered the pre-disease stage, and the period after 23 weeks of age was considered the post-disease stage, and efficacy verification experiments using this model were conducted.
MRL/lpr mice were imported from The Jackson Laboratory and acclimatized for one week in an SPF (Specific Pathogen Free) facility maintained at a temperature of 21-24° C., humidity of 40-60%, and a 12-hour light-dark cycle (lights on at 7:00 AM, lights off at 7:00 PM). […]
The serum separated at the time of necropsy of the lupus animal model was analyzed using the ‘IgG (Total) Mouse Uncoated ELISA Kit (Invitrogen, Cat. #88-50400)’ to measure the concentration of total IgG.
Capture antibody (anti-mouse IgG) diluted 1/250 in coating buffer was added to each well of a 96-well plate (Nunc™ MaxiSorp™ ELISA Plates, Uncoated, BioLegend, Cat. #423501) at 100 μl per well, and the plate was incubated at 4° C. for 16 hours.
To investigate the effect of GO15F administration on changes in the ratio of immune cells in the spleen of a lupus animal model, the spleens of mice administered each compound were excised, cells were extracted, and the cells were suspended in MACS buffer (autoMACS Washing Solution, Miltenyi Biotec., Cat. #130-092-987).
For flow cytometry analysis, FACS tubes (5 mL round tubes, Falcon, Cat. #352052) were used. To prevent non-specific binding of antibodies, 1 μg/mL of anti-mouse CD16/CD32 (InVivoPlus anti-mouse CD16/CD32, BioXCell, Cat. #BP0307) for 30 minutes to prevent non-specific binding of the antibody, then centrifuge at 1,500 rpm for 5 minutes and resuspend in 100 μL of MACS buffer.
For B cells, each FACS tube was stained with 1 μg/mL of FITC-conjugated anti-B220 antibody (eBioscience™, Cat. #11-0452-81) at 4° C. for 30 minutes, then washed with 2 mL of MACS buffer.
For T cells, each FACS tube was stained with 1 μg/mL PerCP-Cy5.5-conjugated anti-CD3 (Biolegend, Cat. #100218) at 4° C. for 30 minutes.
For macrophages, each FACS tube was stained with 1 μg/mL of PE-conjugated anti-CD11b antibody (Biolegend, Cat. #101207) and PerCP-Cy5.5-conjugated anti-F4/80 (Biolegend, Cat. #123128) and incubated at 4° C. for 30 minutes. The tubes were then washed with 2 mL of MACS buffer.
To investigate the effects of compound GO15F according to the present invention on systemic immune responses in a lupus animal model, gene expression analysis of cytokines in kidney tissue was performed as described in (1).
Each kidney tissue was used to isolate total RNA using TRIzol™ (Invitrozen, Cat. #15596018). RNA from each mouse was quantified at 1 μg using a micro-quantitative spectrophotometer (ThermoFisher Scientific, ND2000) and cDNA was synthesized.
The synthesized cDNA from each mouse was quantified to a concentration of 50 ng using a micro-quantitative spectrophotometer, and qPCR was performed for the cytokines ‘IL-2, IL-6, IL-10, IL-17, TNF-α, IFN-γ’ using a SYBR green probe (CFX96, BIO-RAD).
To investigate the effects of drug administration on renal tissue in MRL/lpr mice, the tissue was fixed in 10% neutral buffered formalin at room temperature, followed by stepwise ethanol penetration for dehydration. The tissue was then embedded in xylene and paraffin.
The blocked tissues were sectioned into 4 μm thick slices using a microtome, followed by deparaffinization, hydration, and staining.
Hematoxylin & Eosin staining, PAS staining, and Masson trichrome staining were performed for pathological evaluation of the tissues. […]

[3] = test system: Collagen I in human lung fibroblasts MRC-5; assay: TGF-β-induced Collagen I expression in MRC-5 cells, Western blot; assay type: cell-based; details: MRC-5, TGF-β (5 ng/ml), GO88 0.5 μM and 1 μM, 24 hours
Method: To confirm that the compound of the present invention directly acts on fibrosis-related mechanisms, in vitro experiments were performed using human lung fibroblasts MRC-5 cell lines (Korea Cell Bank).
First, MRC-5 cells were seeded at 5×10^3 cells per well in a 6-well plate and stabilized for 24 hours.
Subsequently, experimental groups were established, including a control group, a group treated with TGF-β (5 ng/ml) alone, and groups treated with TGF-β and the compound GO88 from the present invention at concentrations of 0.5 μM and 1 μM, respectively.
After treating each group with the drugs for 24 hours, the cell medium was removed, and the cells were washed twice with cold PBS. Then, RIPA lysis buffer containing phosphatase inhibitor and protease inhibitor was added to each group to extract proteins.
The extracted proteins were incubated at 4° C. for 30 minutes, then centrifuged at 13,000 rpm for 15 minutes, and the supernatant was collected. The total protein concentration was measured using the BCA protein quantification method.
Subsequently, the proteins were separated by SDS-PAGE, transferred to a PVDF membrane, and Western blot analysis was performed.
The expression levels of Collagen I, a marker related to pulmonary fibrosis, were confirmed, with GAPDH used as an internal control.

CC1(C)CN(CCCCCCCCCCCCC(=O)Nc2nc(N)c3[nH]cnc3n2)CCO1 [Compound 11, 12-[4-(2,2-dimethylmorpholin-4-yl)]dodecyl-N-(6-aminopurine-2-yl)carboxamide]
Relative cell viability (%) ([1]; SU-DHL-8, 1 μM): 7.63% | Relative cell viability (%) ([1]; SU-DHL-8, 10 μM): 6.09% | Relative cell viability (%) ([1]; SU-DHL-8, 30 μM): 4.82% | Relative cell viability (%) ([1]; SU-DHL-8, 50 μM): 3.29%

Nc1ncccc1C(=O)NCCCCCCCCCCCCN1CCNCC1 [Compound 14, 2-Amino-N-(12-(piperazin-1-yl)dodecyl)nicotinamide]
hair growth on the facial region [2]: hair growth was confirmed | protein expression of Collagen I [3]: inhibited in a concentration-dependent manner
